# Data as given in patent US20190365673A1, “Immunomodulatory Compounds” (Lankenau Institute for Medical Research, priority 2016, published 2019).
# Key:
# [1] = system: polyamine transport system (PTS); experiment: Radiolabeled spermidine transport assay, human melanoma cell lines; format: cell-based; details: FIG. 8A, WM983B (BRAF V600E), 1 mM DFMO 40 h
# Description: (§1) Polyamine transport in tumor cells was evaluated essentially as described (Kramer, et al. (1993) J. Cell Physiol., 155(2):399-407; Nilsson, et al. (2005) Cancer Cell 7(5):433-444). Radioactive spermidine (Net-522 Spermidine Trihydrochloride, [Terminal Methylenes-^3H(n)]) from Perkin Elmer was used (specific activity: 16.6 Ci/mmol). Cells were plated in 96 well plates and grown to approximately 80% confluence. Half of the cells were treated with 1 mM DFMO for 40 hours. After repeated washing with PBS, ^3H-spermidine was added at 1 μM and incubated for 60 minutes at 37° C. Cells were then washed with cold PBS containing 50 μM spermidine and lysed in 0.1% SDS at 37° C. for 30 minutes with mixing. Cell lysates were then aliquoted for scintillation counting and for protein assay using a mini-BioRad assay. Results were expressed as CPM/g protein.
# [2] = system: B16F10-sTAC melanoma tumors; experiment: B16F10-sTAC melanoma tumor model; details: for polyamine levels in tumors (HPLC): FIG. 1D, compared with vehicle-treated mice; for cytokine levels in tumors: FIG. 3, compared to vehicle treated mice; for B16F10-sTAC tumor growth compared to vehicle: Trimer PTI 3 mg/kg i.p. daily and/or 0.25% DFMO in drinking water
# Description: FIG. 1A: Mice were subcutaneously injected with 5×10^5 B16F10-sTAC melanoma cells. When tumors were 50-100 mm^3 in size, treatment was initiated with either saline, 0.25% DFMO (w/v) in the drinking water, Trimer PTI (i.p., 3 mg/kg, once a day) or both DFMO and Trimer PTI. […] FIG. 1B: Upon sacrifice, tumors were excised and weighed (mean±SEM). FIG. 1C: Spleen weight was determined upon sacrifice (mean±SEM). FIG. 1D: Polyamine levels were determined in tumors by HPLC and normalized to DNA levels in the tissue extracts (nmol/mg DNA). […] Trimer PTI levels were determined in tumor and skin supernatants by mass spectrometry and normalized to tissue protein concentration (nmol/mg protein). n=5-10 mice per group; *=p≤0.05 and #=p≤0.01 compared to vehicle-treated mice.
# Tumor models were established by subcutaneous injections of 5×10^5 B16F10-sTAC cells in C57B16 mice or 5×10^5 CT26.CL25 cells in Balb/c mice. Mice were monitored twice a week for tumor growth. Treatment with 0.25% (w/v) DFMO in the drinking water and the Trimer PTI (3 mg/kg daily by intraperitoneal injection) was initiated when tumors were palpable (50-100 mm^3). For adoptive transfers, spleens were excised and pressed through a nylon filter to obtain a single cell suspension. The resulting suspension was incubated with red cell lysis buffer for 5 minutes to lyse red blood cells. Gr1^+ cells were stained with a PE conjugated antibody and then isolated using anti-PE microbeads (Miltenyi Biotec) as per the manufacturer's instructions. Gr1^+ positive cells were injected into the retro-orbital cavity. Tumor growth was assessed morphometrically using calipers, and tumor volumes were calculated using the formula V (mm^3)=π/6×A×B^2 (A is the larger diameter and B is the smaller diameter).
# Upon sacrifice, splenocytes from B16F10-sTAC tumor bearing mice and tumor cell suspensions from CT26.CL25 tumor bearing mice were analyzed for IFN-γ producing cells by enzyme-linked immunosorbent spot (ELISpot) assay. Multiscreen filtration plates (Millipore) were coated with 0.5 μg/mL of purified anti-mouse IFN-γ capture antibody (Biolegend) overnight at 4° C. Single-cell suspensions of splenocytes or tumors were plated at 1×10^6 and 5×10^5 per well respectively. For ELISpot assays with splenocytes from B16F10-sTAC tumor bearing mice, cells were stimulated with the […] (SEQ ID NO: 1) peptide (Anaspec) at […]. […] After 16 hours of stimulation at 37° C., the cells were removed by washing and spots were developed with a biotinylated anti-IFN-γ detection antibody and streptavidin-horseradish peroxidase conjugate followed by NITRO-blue tetrazolium chloride and 5-bromo-4-chloro-3′-indoylphosphate p-toluidine salt substrate (Sigma). Spot numbers were counted, and data were reported as IFN-γ-spot forming cells per 10^6 cells.
# Mouse tumor tissues were fixed in 4% paraformaldehyde in PBS overnight and embedded in paraffin. Sections were deparaffinized, hydrated, and then heated in 0.01 mol/L sodium citrate buffer (pH 6.0) in a steamer for 8 minutes. Sections were incubated with the primary antibody (rat monoclonal anti-mouse F4/80 [BioRad MCA497GA]) for 2 hours at room temperature followed by biotinylated secondary and then an avidin HRP complex (Vectastain Elite ABC KIT, Vector Laboratories, INC). Immunoreactive cells were localized by incubating the sections with diaminobenzidine and peroxide and then counterstaining with hematoxylin. Pictures were obtained using a Zeiss Axiophot microscope (Carl Zeiss Inc.) with a digital color camera and corresponding software.
# B16F10-sTAC tumors were flash frozen in liquid nitrogen, ground and homogenized in PBS containing 0.5 μM dithiothreitol, 0.5 μM Pefabloc and 8 μg/mL leupeptin. Samples were analyzed for monocyte chemoattractant protein-1 (MCP-1), interleukin-6 (IL-6).
# [3] = system: polyamine transport system (PTS); experiment: Radiolabeled spermidine transport assay, murine melanoma cells; format: cell-based
# Description: (§2) FIG. 9A: Murine BRAF^V600E YUMM1.7 melanoma cells and BRAF^WT B16F10 melanoma cells were treated with increasing doses of AP. After 72 hours of culture, cell survival was determined via EZQuant™ Cell Quantifying assay. IC50 values were calculated by GraphPad Prism 6. FIG. 9B: Murine BRAF^V600E YUMM1.7 melanoma cells and BRAF^WT B16F10 melanoma cells were treated with increasing doses of AP±1 mM DFMO or with PLX4720. After 72 hours of culture, cell survival was determined via EZQuant™ Cell Quantifying assay. IC50 values were calculated by GraphPad Prism 6. […] Cells were washed with cold PBS containing 50 μM spermidine, and cell lysates were assayed for CPM ^3H-spermidine per mg protein by scintillation counting.
# as §1
# BRAF^WT melanoma cells = details: WM3451, WM3743, WM3211; read-out: IC50 (cell viability); cited from earlier work
# [4] = system: 1205Lu melanoma spheroids; experiment: 3D spheroid culture viability (CellTiter-Glo); format: cell-based, human; details: FIG. 10, 25 μM each drug, 48 h, 3D spheroids on NCPs
# Description: BRAF^V600E mutant 1205Lu melanoma cells were seeded at 1×10^4 cells in each well of the […] NCPs. When spheroids were formed on day 3, the 3D cultures of spheroids were treated with PLX4720 (25 μM) and/or AP (25 μM). 2D monolayer cultures of 1205Lu melanoma cells were also treated with PLX4720 (25 μM) and/or AP (25 μM). After drug treatment for 48 hours, the viability of spheroids and monolayer cultures was assayed using the CellTiter-Glo Luminescent Cell Viability Assay. The percent cell survival in each treatment group was calculated relative to cells treated with medium only under the same conditions. As controls, the growth of cells without drug treatment under each condition was normalized as 100% separately. The means are presented±SD.
# The inorganic nanoscale scaffolding NanoCulture plates (NCP) were purchased from SCIVAX. The base of each NCP is constructed with a transparent cyclo-olefin resinous sheet with a nanoscale indented pattern. To form spheroids, 1205Lu human melanoma cells were seeded in 96-well NCPs at 1×10^4 cells/well in MCDB153 (Sigma)/Leibovitz's L-15 (Cellgro) medium (4:1 ratio) supplemented with 2% heat-inactivated fetal calf serum and 2 mM CaCl2 and incubated in a conventional cell incubator at 37° C. in an atmosphere of 5% CO2 and normal O2 levels. […]
# [5] = system: BRAF^V600E YUMM1.7 melanoma cells; experiment: Cell viability assay (EZQuant), YUMM1.7; format: cell-based, murine; details: FIG. 9B, 72 h
# Description: as §2
# [6] = system: BRAF^V600E melanoma cells; details: WM983B, WM3734, 1205Lu, WM989, WM88; read-out: IC50 (cell viability); cited from earlier work
# [7] = system: BRAF-mutant melanoma tumor; experiment: BRAF-mutant melanoma tumor in mice treated with PLX4720; format: in vivo; details: FIG. 11, PLX4720 alone
# Description: FIG. 11 provides a graph of tumor volume in mice over time after treatment with PLX4720 alone or PLX4720 with delayed administration of AP and DFMO.
# In addition to the above, the efficacy of AP in vivo was also tested.
# [8] = system: 1205Lu melanoma cells transduced with JARID1B-promoter-EGFP-reporter; experiment: JARID1B-promoter-EGFP reporter in spheroids; format: cell-based, human; details: 2-day exposure, 1205Lu grown as spheroids
# Excerpt: Treatment with a BRAF inhibitor such as PLX4720 enriches a slow-cycling cancer stem cell-like (CSC) subpopulation of melanoma cells that is characterized by stem cell markers including JARID1B and spheroid formation (Roesch, et al. (2010) Cell 141(4):583-594; Roesch, et al. (2013) Cancer Cell 23(6):811-825). It is thought that cancer stem cell populations exist in a hypoxic microenvironment (Schwab, et al. (2012) Breast Cancer Res., 14(1):R6; Mathieu, et al. (2011) Cancer Res., 71(13):4640-4652; Mohyeldin, et al. (2010) Cell Stem Cell, 7(2):150-161). Endogenous ROS levels are increased in slow cycling JARID1B^high melanoma cells as a result of increased mitochondrial respiration and oxidative phosphorylation (Roesch, et al. (2013) Cancer Cell 23(6):811-825). […] Using 1205Lu melanoma cells stably transduced with a JARID1B-promoter-EGFP-reporter construct (Roesch, et al.
# [9] = compared to AMXT1501; cited from earlier work
SMILES,polyamine transport activity after DFMO treatment [1],polyamine levels in tumors (HPLC) [2],cytokine levels in tumors [2],B16F10-sTAC tumor growth compared to vehicle [2],"polyamine uptake after DFMO treatment ([3]; B16F10 retrovirally expressing BRAF V600E, 1 mM DFMO)","polyamine uptake after DFMO treatment ([3]; FIG. 9C, B16F10 (BRAF WT), 1 mM DFMO 40 h)","PTS activity after DFMO treatment ([3]; FIG. 9C, YUMM1.7 (BRAF V600E), 1 mM DFMO 40 h)",IC50 (BRAF^WT melanoma cells),cell viability of spheroid cultures [4],sensitivity to PLX4720 (IC50 compared to B16F10 cells) [5],IC50 [6],BRAF-mutant melanoma tumor volume over time [7],enrichment of JARID1B-driven GFP expressing cells [8],water solubility [9],"spleen weight ([2]; FIG. 1C, Trimer PTI with or without DFMO)","accumulation in tumor compared to non-tumor bearing skin (mass spectrometry) ([2]; FIG. 1E, PBT-treated mice)"
"NCCC[C@](N)(C(=O)O)C(F)F [DFMO, α-difluoromethylornithine, reference compound]",dramatically increased polyamine transport activity,reduced the levels of putrescine,did not significantly alter,only modestly reduced,enhance polyamine uptake,no significant induction,marked DFMO-induction of PTS activity,–,–,–,–,–,–,–,–,–
"CCCS(=O)(=O)Nc1ccc(F)c(C(=O)c2c[nH]c3ncc(Cl)cc23)c1F [PLX4720, reference compound]",–,–,–,–,–,–,–,> 3 µM,more resistant,very sensitive,≤ 3 µM,initially quickly regress but then grow back,4 fold,–,–,–
CNCCCCNCCCCNCc1cc(CNCCCCNCCCCNC)cc(CNCCCCNCCCCNC)c1 [Trimer PTI],–,no discernible effect,did not significantly alter,only modestly reduced,–,–,–,–,–,–,–,–,–,more water-soluble,no significant effect,30 fold
